Assay results as given in US20260077065A1, “Compositions and Methods for Assessing Kinase Activity” (The Board of Trustees of the Leland Stanford Junior …, priority 2022, published 2026).

Key:
[1] = test system: Akt; test: Akt oKiMBI luminescence in HEK293A (caAkt), U87-EGFRvIII and LNCaP cells; type: cell-based, human; conditions: all cell lines: HEK293A (caAkt), U87-EGFRvIII, LNCaP
[2] = test system: Akt; test: Molecular imaging of Akt inhibition in subcutaneous U87-EGFRvIII tumor model; type: in vivo; conditions: same mice after 2-day interval
Excerpt: Evaluated next was the capacity of Akt oKiMBI to report Akt inhibition in a subcutaneous tumor model. Engineered U87-EGFRvIII cells that stably express oKiMBI or oKiMBImut were subcutaneously injected at different sites in J:NU mice.

[3] = test system: Akt; test: U87-EGFRvIII cells stably expressing Akt oKiMBI or oKiMBImut, luminescence; type: cell-based, human
Excerpt: To assess Akt inhibition in human tumor xenografts in mice, either Akt oKiMBI- or oKiMBImut-expressing U87-EGFRvIII stable cell lines were first engineered through lentiviral transduction (FIG. 17a). Fluorescence-activated cell sorting (FACS) was subsequently employed to sort the transduced cells, followed by antibiotics selection to establish polyclonal stable cell lines.

[4] = test system: Akt; test: BAR (bioluminescent Akt reporter, FLuc) luminescence in HEK293A (caAkt), U87-EGFRvIII and LNCaP cells; type: cell-based, human; conditions: all tested cell lines
[5] = test system: ERK; test: ERK KiMBI cell-based bioluminescent assay, HEK293A cells co-transfected with caMEK
Excerpt: To develop a luciferase reporter protein whose activity can be activated by ERK inhibition, it was hypothesized that NanoLuc luciferase catalytic activity could be modulated through large ERK-induced conformational changes. Created and tested were fusion proteins of various topologies (FIG. 2a) comprising the NanoLuc NanoBiT fragments, an ERK substrate peptide from Cdc25C^7, and a proline-directed WW phospho-binding domain (WW)^8 from Pin1. In particular, an arrangement was postulated in which binding of phosphorylated substrate (pSub) to WW would force the SmBiT fragment to adopt an unfavorable conformation for LgBiT complementation, would show low luminescence with active ERK and high luminescence with inhibited ERK (FIG. 2b). The KiMBI candidates were screened by co-transfection into HEK293A cells with a constitutively active MEK (caMEK) followed by application of the ERK inhibitor Vx-Ile.
(§1) In vitro cell-based bioluminescent assay. Cells were seeded into 96-well Lumitrac plate (Greiner Bio-One) at a density of 1.5-2×10^4 cells per well. After 24 h, cells were transiently transfected with KiMBI-expressing plasmids (5-10 ng per well) with or without caMEK-expressing plasmids (50 ng per well, empty pcDNA3.1 as negative control to keep total transfected DNA amount consistent) using lipofectamine 3000 (Invitrogen) following manufacturer's instructions. For the stable polyclonal KiMBI-expressing cell liens, this lipofection step was skipped. At 24 h after transfection, the cells were treated with drugs at desired concentration in opti-MEM reduced-serum medium (Thermo Fisher) for 1-1.5 hours. Then, for assaying luminescence, Nano-Glo live cell assay system (Promega) was used following manufacturer's instructions. Time-lapse live luminescence was recorded on Safire-2 microplate reader (Tecan) with 100 ms integration and one read per min for 20 min. Luminescence spectrum was measured on a Varioskan LUX multimode microplate reader (Thermo Scientific) using the spectral scanning protocol with 1 s integration for each wavelength at 400-680 nm (1 nm per data point).

[6] = test system: ERK; test: Time-lapse imaging of ERK inhibition in intracranially implanted U87-EGFRvIII cells; type: in vivo, mice
Procedure: A non-invasive method with the potential for longitudinal studying of drug pharmacokinetics and pharmacodynamics should allow rapid dose and schedule optimization for drug development.
(§2) General procedures of kinase inhibitor injection and in vivo bioluminescence imaging. […] For KiMBI (NanoLuc-based bioluminescent reporter) imaging, mice were i.p. injected with either 1.3 μmol (0.56 mg) of fluorofurimazine (FFz) or cephalofurimazine (CFz) in 150 μl of injectable formulation containing 6 mg poloxamer-407 (P-407) in Dulbecco Phosphate Buffered Saline (DPBS, without Ca^2+ or Mg^2+, no. 21-031-CV, Corning) for imaging. Immediately after luciferin administration, mice were anesthetized using isoflurane, and images were acquired in the Ami HT optical imaging system every 1 min for 10 min, with an air flow containing 1-2% isoflurane for stable anesthesia. Imager settings were: emission filter, open; field of view, 25 cm; f-stop 1.2; binning, 2×2 and exposure time, 30 s. Images were analyzed in Aura 4.0 in vivo imaging software. The above-mentioned conditions and settings were for most in vivo studies unless otherwise stated in the specific procedures.
Time-lapse imaging of ERK inhibition in intracranially implanted cells. One week after implantation of 10^5 KiMBI-expressing U87-EGFRvIII stable cells, the tumor-bearing mice were i.p. injected with CFz (0.2 μmol, with 0.8 mg P-407) for the initial imaging to establish the signal baseline before drug administration.

[7] = test system: ERK; test: U87-EGFRvIII stable tKiMBI/tKiMBImut reporter cell lines, bioluminescence; type: cell-based, human; conditions: for induction of bioluminescence: tKiMBI-expressing cells; for effect on bioluminescence of control cell lines: tKiMBImut-expressing cells
Procedure: Next, the ability of KiMBIs to report ERK kinase inhibition in human tumor xenografts in mice was tested. U87-EGFRvIII cells were transduced with lentiviruses expressing tKiMBI-T2A-AkaLuc, where AkaLuc allows kinase-independent tracking of tumor location and size (FIG. 6a). Transduced cells were sorted by fluorescence-activated cell sorting (FACS) and selected by antibiotics to generate polyclonal stable cell lines.
Generation of KiMBI-expressing stable tumor cell lines. U87-EGFRvIII and LN229 cells were lentiviral transduced with pLL3.7m-CMV-KiMBI-T2A-AkaLuc-P2A-Blasticidin. Then, 72 h after transfection, cells were dissociated with trypsin and resuspended in DMEM and then changed to PBS. Suspended cells were sorted for the population with medium fluorescence level (20-40%) on a fluorescence-activated cell sorter (FACS), the FACSJazz (BD Biosciences) at Stanford Shared FACS Facility. After cell sorting, the KiMBI-expressing cells were maintained and passaged in corresponding culture medium supplemented with blasticidin (6 μg/mL for both cell lines) to select for stable polyclonal cell lines. Flow cytometry data were analyzed on FlowJo software. The stable KiMBI expression was validated by examination of tdTomato fluorescence in tKiMBI (and its variants) using an EVOS FL Autoimaging system (Thermo Scientific).
as §1

[8] = test system: ERK; test: Molecular imaging of ERK inhibition in KiMBI-encoded AAV infected mouse brain; type: in vivo
Procedure: Using CFz, tested was whether tKiMBI could report the BBB-permeance of ERK pathway inhibitors in living mice. tKiMBI-T2A-caMEK or the negative control tKiMBImut-T2A-caMEK were expressed in mouse striatum by AAV transduction (FIG. 9a).
as §2
Molecular imaging of ERK inhibition in KIMBI-encoded AAV infected mouse brain. […]

[9] = test system: ERK; test: Imaging of ERK inhibition in intracranially implanted LN-229 cells; type: in vivo, mice; conditions: one week after implantation
Procedure: 3×10^4 LN-229 cells expressing tKiMBI or tKiMBImut were implanted into the striatum, and KiMBI assays were performed one week later.
Molecular imaging of ERK inhibition in intracranially implanted cells. The stereotaxic injection on the 7- to 9-week-old male J:NU mice were similar to the afore-mentioned AAV infection surgery. A Hamilton syringe with a 26-gauge needle was inserted 0.62 mm dorsal and 1.75 mm lateral to the bregma to a depth of 3.5 mm, and after a 2 min wait the needle was pulled back 0.5 mm to allow space for the cell suspension. […]

[10] = previously characterized; cited from earlier work
[11] = test system: ERK; test: Imaging of ERK inhibition in intracranially implanted U87-EGFRvIII cells; type: in vivo, mice
Procedure: Tested next was whether KiMBI can report ERK inhibition in the brain tumor xenograft model.
U87-EGFRvIII xenografts are known to disrupt the BBB^16. When the BBB-impermeant GSK1120212 (1 mg/kg i.p.) was administered to the same group of mice, a positive response was also observed, with ˜150% higher tKiMBI signal.
as §2
Molecular imaging of ERK inhibition in intracranially implanted cells. The stereotaxic injection on the 7- to 9-week-old male J:NU mice were similar to the afore-mentioned AAV infection surgery. A Hamilton syringe with a 26-gauge needle was inserted 0.62 mm […] and 1.75 mm lateral to the bregma to a depth of 3.5 mm, and after a 2 min wait the needle was pulled back 0.5 mm to allow space for the cell suspension. Following this, 3×10^4 KiMBI-expressing U87-EGFRvIII or LN-229 stable cells in 1.5 μl of PBS were injected at an injection speed of 0.3 μL/min using the syringe pump. To visualize ERK inhibition in U87-EGFRvIII cell implants, 5 days after cell implantation, tumor-bearing mice were i.p. injected with CFz (0.4 μmol, with 1.8 mg P-407) for imaging. […]

[12] = test system: ERK; test: Molecular imaging of ERK inhibition in subcutaneous U87-EGFRvIII tumor model; type: in vivo, mice; conditions: 2 h after injection, FFz imaging
Procedure: The ability of tKiMBI to report ERK pathway inhibition in tumors in vivo was assessed. Mice were injected subcutaneously with 10^6 tKiMBI-expressing cells on one side and, to control for differences in substrate delivery between injections, tKiMBImut-expressing reporter cells on the other side (FIG. 7a).
Molecular imaging of ERK inhibition in subcutaneously implanted cells. […]

[13] = test system: ERK; conditions: mouse, in vivo; cited from earlier work

## NC(=O)c1cccc2c(N[C@H](CN3CCC3)c3ccc(Cl)c(C(F)(F)F)c3)ncnc12 [M2698]
[1]
  oKiMBI luminescence response to Akt inhibitor: significant increase in luminescence
[2]
  inhibition of the Akt pathway reported by Akt oKiMBI: effective inhibition of the Akt pathway
[3]; cells expressing oKiMBImut
  signal response of oKiMBImut cells to drug treatment: did not exhibit any signal increase
[3]; cells stably expressing Akt oKiMBI
  increase in luminescent signals: ~2.5 fold
[4]
  BAR and BARmut response to Akt inhibitor: miniscule positive responses

## Cc1cnc(Nc2ccc(F)cc2Cl)nc1-c1c[nH]c(C(=O)N[C@H](CO)c2cccc(Cl)c2)c1 [Vx-11e]
[5]; 03 topology KiMBI candidate, 1 μM Vx-11e
  increase in luminescence: ~65%
[5]; ERK blue KiMBI (WW F25A)
  induction of bKiMBI luminescence by inhibitor: > 10 fold

## O=C(NOC[C@H](O)CO)c1ccc(F)c(F)c1Nc1ccc(I)cc1F [PD0325901, mirdametinib]
[6]; 25 mg/kg i.p., tKiMBI
  return of signal to baseline: backed to baseline on the second day
  time for bioluminescence signal to rise to plateau: ≤ 1 h
  time post-treatment at which signal declined to about half: around 8 hrs
  time until which signal remained high: about 4 h
[6]; after 24 h, tKiMBImut control cells
  signal increase in control cells: ~1.4 fold
[5]; AAV plasmids caMEK-T2A-tKiMBI (A1) and tKiMBI-T2A-caMEK (A2), both
  induction of tKiMBI signal: approximately 4 fold
[7]
  induction of bioluminescence: ~4 fold
  effect on bioluminescence of control cell lines: slightly reduced bioluminescence
[8]; 25 mg/kg, CFz imaging, tKiMBI-T2A-caMEK
  bioluminescence of tKiMBI in brain: robustly induced bioluminescence
[8]; AAV-infected mice brain (discussion)
  able to induce a signal increase in KiMBI: able to induce a signal increase
[9]
  increase in signal from tKiMBI: > 3 fold
[10]
  BBB permeation: BBB-permeant
[11]; after PD0325901 administration, CFz
  increase in tKiMBI signal: ~200%
[11]; after PD0325901 administration, control reporter
  decrease in tKiMBImut signal: ~10%
[12]; tKiMBI
  increase in brightness of tKiMBI tumor: 100%
[12]; tKiMBImut control
  increase in brightness of tKiMBImut tumor: ~10%

## CC(=O)Nc1cccc(-n2c(=O)n(C3CC3)c(=O)c3c(Nc4ccc(I)cc4F)n(C)c(=O)c(C)c32)c1 [GSK1120212, trametinib]
[7]
  induction of bioluminescence: ~4 fold
[10]
  BBB permeation: poor BBB permeation
[13]
  drug level and ERK inhibition in brains of drug-injected mice: no detectable GSK1120212 or ERK inhibition
[11]; 1 mg/kg i.p., same group of mice
  higher tKiMBI signal: ~150%

## O=C(Nc1ccc2[nH]nc(-c3ccncc3)c2c1)[C@@H]1CCN(CC(=O)N2CCN(c3ccc(-c4ncccn4)cc3)CC2)C1 [SCH772984]
[7]
  induction of bioluminescence: ~4 fold
  effect on bioluminescence of control cell lines: slightly reduced bioluminescence
